This passage reports IC50 results from patent US8329913B2, “Carbazole derivative, solvate thereof, or pharmaceutically acceptable salt thereof” (Zeria Pharmaceutical Co., Ltd., priority 2004, dated 2012).

In the assay the target is T1, human PPARγ (Homo sapiens, UniProt P37231).
T1 construct: 1.6 kb of fragment of the prepared plasmid pGEMT-hPPARg2 including human PPARγ gene; expressed in transfected cells; host or cells: CV-1 cells, transient transfection with pCI-hPPARg2, pCI-hRXRa and the reporter pGL3-PPRE3-TK
T1 sequence (P37231 1-505): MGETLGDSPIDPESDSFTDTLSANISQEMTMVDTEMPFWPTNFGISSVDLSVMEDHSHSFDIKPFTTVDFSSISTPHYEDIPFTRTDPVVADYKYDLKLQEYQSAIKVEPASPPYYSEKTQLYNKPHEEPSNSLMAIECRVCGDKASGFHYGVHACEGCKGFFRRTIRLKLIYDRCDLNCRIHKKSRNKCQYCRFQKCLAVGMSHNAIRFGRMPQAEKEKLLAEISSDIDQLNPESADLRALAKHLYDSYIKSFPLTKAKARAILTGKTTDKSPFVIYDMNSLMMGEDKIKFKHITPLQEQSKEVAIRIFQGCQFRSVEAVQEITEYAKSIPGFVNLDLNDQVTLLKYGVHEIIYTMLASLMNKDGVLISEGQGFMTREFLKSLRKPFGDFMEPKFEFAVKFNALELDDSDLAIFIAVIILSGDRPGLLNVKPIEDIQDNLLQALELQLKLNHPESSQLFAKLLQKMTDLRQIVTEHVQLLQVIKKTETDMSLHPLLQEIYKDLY
T1 sequence (P19793 1-462 partner): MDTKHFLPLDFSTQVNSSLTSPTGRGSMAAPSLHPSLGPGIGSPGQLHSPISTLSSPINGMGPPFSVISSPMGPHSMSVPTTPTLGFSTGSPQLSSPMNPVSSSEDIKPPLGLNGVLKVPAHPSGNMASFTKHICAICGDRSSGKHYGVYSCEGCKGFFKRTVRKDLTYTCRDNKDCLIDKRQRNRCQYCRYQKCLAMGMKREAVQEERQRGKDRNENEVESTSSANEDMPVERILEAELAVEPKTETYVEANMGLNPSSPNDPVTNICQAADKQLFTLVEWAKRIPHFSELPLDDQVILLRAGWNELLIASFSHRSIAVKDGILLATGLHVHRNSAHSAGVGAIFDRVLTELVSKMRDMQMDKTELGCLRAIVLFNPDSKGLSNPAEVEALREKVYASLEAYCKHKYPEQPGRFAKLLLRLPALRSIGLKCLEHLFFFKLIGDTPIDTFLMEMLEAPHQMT
Briefly: Human PPARγ antagonist assay (luciferase reporter in transfected CV-1 cells). The conditions noted are these: CV-1 cells expressing human PPARγ and RXRα with reporter plasmid; pioglitazone 1 μM as stimulant; 24 hours; read-out: Human PPARγ antagonist activities, Inhibition IC50. The format is cell-based. Summed up:
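CV-1 cells transiently co-transfected with human PPARγ2, RXRα, PPRE3-TK firefly luciferase and renilla plasmids were exposed 24 h at 37 °C to compound (10 nM–3 μM) plus 1 μM pioglitazone. Firefly/renilla ratios were scaled between pioglitazone alone (0%) and no addition (100%), and IC50 was taken at 50% inhibition.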

SMILES strings stand for the structures.

With `CC[C@H](Oc1cccc2c1c1ccccc1n2Cc1ccc(OCc2nc(-c3ccccc3)oc2C)c(OC)c1)C(=O)[O-].[Na+]` [Example 38, sodium (S)-(+)-2-{9-[3-methoxy-4-((5-methyl-2-phenyl-oxazole-4-yl)methoxy)-benzyl]-9H-carbazole-4-yloxy}butyrate], the IC50 came to 330 nM. Consider `COc1cc(Cn2c3ccccc3c3c(O[C@H](C)C(=O)[O-])cccc32)ccc1OCc1nc(-c2ccccc2)oc1C.[Na+]` [Example 43, sodium (R)-2-{9-[3-methoxy-4-((5-methyl-2-phenyl-oxazole-4-yl)methoxy)-benzyl]-9H-carbazole-4-yloxy}propionate], for which the IC50 was 1120 nM.
